Measured values taken from paper PMC6017654, “Ionic Liquid-Promoted Synthesis of Novel Chromone-Pyrimidine Coupled Derivatives, Antimicrobial Analysis, Enzyme Assay, Docking Study and Toxicity Study” (Molecules : A Journal of Synthetic Chemistry and Natural …, 2018).
≈ marks a conversion by molar mass, not a printed value.

Key:
[1] = tested on: ergosterol biosynthesis in Candida albicans (NCIM-3471); assay: Ergosterol extraction and quantitation assay (UV sterol profile); assay type: cell-based; settings: C. albicans NCIM3471; 6f 24 µg/mL, miconazole 25 µg/mL; 281.5 nm
Experimental: Changes in this absorption pattern are therefore indicative of interference in the synthetic pathway of ergosterol.
A single Candida albicans (NCIM-3471) colony from an overnight Sabouraud dextrose agar plate culture was used to inoculate 50 mL of Sabouraud dextrose broth for control and for various concentrations of the molecules. The cultures were incubated for 16 hours and harvested by centrifugation at 2700 rpm (856× g) for five min. The net weight of the cell pellet was determined. Three mL of 25% alcoholic potassium hydroxide solution was added to each pellet and vortex mixed for one min. Cell suspensions were transferred to sterile borosilicate glass screw-cap tubes and were incubated in an 85 °C water bath for one hour. Following incubation, the tubes were allowed to cool. Sterols were then extracted by addition of a mixture of 1 mL of sterile distilled water and 3 mL of n-heptane followed by vigorous vortex mixing for 3 min. The heptane layer was transferred to a clean borosilicate glass screw-cap tube and stored at −20 °C. Prior to analysis, 0.6 mL aliquot of sterol extract was diluted five fold in 100% ethanol and scanned spectrophotometrically between 240 nm and 300 nm with a spectrophotometer (UV-Visible Spectrophotometer 2100, Thermo Fischer Scientific, Waltham, MA, USA). The presence of ergosterol and the late sterol intermediate 24(28)-dehydroergosterol (DHE) in the extracted sample results in a characteristic four-peaked curve. The absence of detectable ergosterol in extracts was indicated by a flat line.
Sterols were extracted from cells and spectral profiles between 240 and 300 nm were determined.

A. flavus = assay: In vitro antifungal activity (MIC100, CLSI/NCCLS); assay type: cell-based; settings: Aspergillus flavus; A. fla.; average of three readings; read-out: MIC 100
Experimental: (§1) The newly synthesized derivatives 4(a–f) and 6(a–f) were screened for their in vitro antifungal activity against different yeast and filamentous fungal pathogens. Minimum inhibitory concentration (MIC100) values for in vitro antifungal activity were determined by the methods recommended by National Committee for Clinical Laboratory Standards (NCCLS). Miconazole was used as standard drug. Dimethyl sulfoxide (DMSO) was used as solvent control.
(§2) In vitro antifungal activity was determined as per CLSI (formerly, NCCLS) guidelines. […] The medium yeast nitrogen base was dissolved in phosphate buffer pH 7 and it was autoclaved at 110 °C for 10 min. With each set a growth control without the antifungal agent and solvent control DMSO were included. The fungal strains were freshly sub cultured on to Sabouraud dextrose agar (SDA) and incubated at 25 °C for 72 h. The fungal cells were suspended in sterile distilled water and diluted to get 10^5 cells/mL. Further, ten microlitres of the standardized suspension was inoculated onto the control plates and the media incorporated with the antifungal agents. The inoculated plates were incubated at 25 °C for 48 h. The readings were taken at the end of 48 h and 72 h. The MIC was the lowest concentration of drug preventing growth of macroscopically visible colonies on drug containing plates when there was visible growth on the drug free control plates.

Aspergillus fumigates = assay: In vitro antifungal activity (MIC100, CLSI/NCCLS); assay type: cell-based; settings: A. fum., average of three readings, read-out: MIC 100
Experimental: as §1, §2

Fusarium oxysporum = assay: In vitro antifungal activity (MIC100, CLSI/NCCLS); assay type: cell-based; settings: F. oxy., average of three readings, read-out: MIC 100
Experimental: as §1, §2

Aspergillus niger = assay: In vitro antifungal activity (MIC100, CLSI/NCCLS); assay type: cell-based; settings: A. nig., average of three readings, read-out: MIC 100
Experimental: as §1, §2

Candida albicans = assay: In vitro antifungal activity (MIC100, CLSI/NCCLS); assay type: cell-based; settings: C. alb., average of three readings, read-out: MIC 100
Experimental: as §1, §2

Cryptococcus neoformans = assay: In vitro antifungal activity (MIC100, CLSI/NCCLS); assay type: cell-based; settings: C. neo., average of three readings, read-out: MIC 100
Experimental: as §1, §2

Candida glabrata = assay: In vitro antifungal activity (MIC100, CLSI/NCCLS); assay type: cell-based; settings: Nakaseomyces glabratus; C. glab.; average of three readings; read-out: MIC 100
Experimental: as §1, §2

[2] = In vitro cytotoxicity, Sulforhodamine B (SRB) assay; assay type: cell-based, human; settings: human, range 80 to 0.55 μg/mL
Excerpt: (§3) Toxicity scrutiny of synthesized compounds at the early phase of research paves the way to clinical trials and reduces the failure of potential therapeutics at later stages of clinical trials. To scrutinize the safety and selectivity of antimicrobial activity of the synthesized compounds, the compounds 6c and 6f were appraised for their toxicity against HeLa (a human cervical cancer cell line) and PC-3 (human prostate cancer cell line) by the Sulforhodamine B (SRB) assay using adriamycin as a standard drug.
(§4) The images were captured using an Eclipse Ti-S Inverted Research Microscope (Nikon, Tokyo, Japan). Image processing software used was NIS-Elements.

DdlB from E.coli = DdlB from E.coli (Escherichia coli, UniProt P07862); assay: D-Alanine-D-alanine ligase (DdlB) enzyme inhibition, malachite green method; assay type: biochemical; settings: 37 °C, 30 min incubation, 5% DMSO
Experimental: The key enzyme involved in the peptidoglycan biosynthesis is D-alanine-D-alanine ligase (Ddl), making it an important target for drug discovery. Inhibition of DdlB as an essential enzyme in either Gram-positive or Gram-negative organisms leads to the loss of cell shape and integrity followed by bacterial death. The synthesized derivatives 4(a–f) and 6(a–f) were tested for their inhibitory activity on DdlB from E.coli. The results are presented as IC50 values.
The D-Ala-adding activity of DdlB ligase was monitored by the detection of orthophosphate generated during the reaction based on the colorimetric malachite green method described by Walsh et al.. […] All the compounds were soluble in the assay mixture containing 5% DMSO. After 30 min of incubation, 100 µL Biomol reagent was added. After 5 min, absorbance was read at 650 nm. Residual activity was calculated with respect to a similar assay without inhibitor. To exclude possible non-specific (promiscuous) inhibitors, representative compounds 4(a–f) and 6(a–f) were also tested in the presence of Tween (0.003%), Triton X-114 (0.005%), and SDS (420 µM), as described by McGovern et al.. No significant differences were found when compared to measurements without detergents.

[3] = tested on: HeLa (human cervical cancer cell line); assay: In vitro cytotoxicity, Sulforhodamine B (SRB) assay; assay type: cell-based; settings: up to 80 µg/mL
Excerpt: as §3, §4

Swiss albino mice = assay: In vivo acute oral toxicity study and gross behavioral study (OECD guideline No. 425)
Experimental: The in vivo acute oral toxicity and gross behavioral study results of the newly synthesized compounds 6c and 6f are as listed in Table 12 [26].
Each group, consisting of six Swiss albino mice (18–22 gm weight, overnight fasted), were kept in colony cage at 25 ± 2 °C with 55% relative humidity and 12 h of light and dark cycle. A specified dose of 100, 250, 500, 750, 1000, 1500 and 2000 mg/kg body weight of mice was administered orally as a single dose. The acute toxic symptoms and the behavioral changes produced by the test compounds were observed continuously for 4 h periods at 8th, 12th and 24th h on set of toxic symptoms and the gross behavioral changes were also recorded. These animals were maintained for further 10 days with observation made daily. The in vivo acute oral toxicity study was carried out at animal house at the Y.B. Chavan College of Pharmacy, Aurangabad IAEC approval number CPCSEA/IAEC/P’col-52/2015-16/115 [26].

[4] = tested on: Staphylococcus aureus (NCIM-2901); assay: In vitro antibacterial activity (MIC100, two fold serial dilution, NCCLS); assay type: cell-based; settings: Staphylococcus aureus, NCIM2901, 24 h, read-out: MIC100, S. aureus NCIM-2901, average of three readings
Experimental: (§5) All the synthesized compounds 4(a–f) and 6(a–f) were screened for their in vitro antibacterial activity against Staphylococcus aureus (NCIM-2901), Escherichia coli 1411 (standard laboratory strains) and Escherichia coli SM1411 (an acrAB deficient derivative of 1411). Minimum inhibitory concentration (MIC100) values were determined using methods recommended by National Committee for Clinical Laboratory Standards (NCCLS). Dimethyl sulfoxide (DMSO) was used as solvent control.
(§6) All the synthesized compounds 4(a–f) and 6(a–f) were screened for their in vitro antibacterial activity against Staphylococcus aureus (NCIM-2901) and Escherichia coli 1411 (standard laboratory strains) and Escherichia coli SM1411 (an acrAB deficient derivative of 1411). Minimum inhibitory concentration (MIC100) values were determined using the method recommended by National Committee for Clinical Laboratory Standards (NCCLS). In vitro antibacterial activities of the synthesized compounds 4(a–f) and 6(a–f) were tested in Nutrient Broth (NB) for Bacteria by the two fold serial dilution method. Seeded broth (broth containing microbial spores) was prepared in NB from 24 h old bacterial cultures on nutrient agar (Hi-media) at 37 ± 1 °C. The bacterial suspension was adjusted with sterile saline to a concentration of […]. The synthesized compounds and standard drug D-cycloserine were prepared by two fold serial dilutions to obtain the required concentrations. The tubes were incubated in BOD incubators at 37 ± 1 °C for bacteria. The MICs were recorded by visual observations after 24 h (for bacteria) of incubation.

Escherichia coli 1411 = assay: as above; assay type: cell-based; settings: Escherichia coli, 1411, 24 h, read-out: MIC100
Experimental: as §5, §6

[5] = tested on: Escherichia coli SM1411 (an acrAB deficient derivative of 1411); assay: as above; assay type: cell-based; settings: 24 h, read-out: MIC100
Experimental: as §5, §6

Compound	ergosterol peak in UV sterol profile at the MIC value [1]	MIC (A. flavus) [µg/mL]	MIC (Aspergillus fumigates) [µg/mL]	MIC (Fusarium oxysporum) [µg/mL]	MIC (Aspergillus niger) [µg/mL]	MIC (Candida albicans) [µg/mL]	MIC (Cryptococcus neoformans) [µg/mL]	MIC (Candida glabrata) [µg/mL]	GI50 ([2]; HeLa cells, SRB assay) [µg/mL]	GI50 ([2]; PC-3 cells) [µg/mL]	IC50 (DdlB from E.coli) [µM]	cell inhibition [3]	No. of Deaths (Swiss albino mice; Swiss albino mice, single oral dose 100 to 2000 mg/kg)	lethal dose (Swiss albino mice; mice, oral, single dose, no mortality up to 2000 mg/kg)	MIC [4] [µg/mL]	MIC (Escherichia coli 1411) [µg/mL]	MIC [5] [µg/mL]
Clc1ccc(COC(Cn2ccnc2)c2ccc(Cl)cc2Cl)c(Cl)c1 (centres unmarked) [Miconazole, reference compound]	inhibition of ergosterol	12 (≈ 28.8 µM)	35 (≈ 84.1 µM)	25 (≈ 60.1 µM)	12 (≈ 28.8 µM)	25 (≈ 60.1 µM)	12 (≈ 28.8 µM)	25 (≈ 60.1 µM)	–	–	–	–	–	–	–	–	–
COc1cccc2c1C(=O)c1c(O)c3c(c(O)c1C2=O)C[C@@](O)(C(=O)CO)C[C@@H]3O[C@H]1C[C@H](N)[C@H](O)[C@H](C)O1 [Adriamycin, reference compound]	–	–	–	–	–	–	–	–	0.5 (≈ 0.92 µM)	0.5 (≈ 0.92 µM)	–	–	–	–	–	–	–
CC1=C(C(=O)NN)C(c2coc3ccc(F)cc3c2=O)NC(=O)N1 (centres unmarked) [Compound 6c, 4-(6-Fluoro-4-oxo-4H-chromen-3-yl)-6-methyl-2-oxo-1,2,3,4-tetrahydropyrimidine-5-carbohydrazide]	–	42 (≈ 126 µM)	60 (≈ 181 µM)	58 (≈ 175 µM)	40 (≈ 120 µM)	52 (≈ 156 µM)	40 (≈ 120 µM)	52 (≈ 156 µM)	> 80	> 80	106	cell inhibition did not occur	N	above 2000 mg/kg body weight	32 (≈ 96.3 µM)	14 (≈ 42.1 µM)	14 (≈ 42.1 µM)
